In patent US6608069B1, “Phenyl xanthine derivatives” (SmithKline Beecham Corporation, priority 1998, dated 2003) one finds melting point and IC50 data, which are given here for 11 compounds.

Counter-ions that a name gives are not always drawn. A value given as a limit tells only on which side of the number the result lay.

The test system of data set [1] is cytokine-stimulated human umbilical vein endothelial cells. The experiment in a line: Cell Adhesion Assay: adherence of fluorescently-labelled leukocytes to endothelial cell monolayers. The data set is classed as cell-based. Conditions: inhibition of cytokine-stimulated adhesion minus basal adhesion, calcein-AM labelled leukocytes on HUVEC monolayers. The method in brief:
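HUVEC monolayers were stimulated with cytokine, and adhesion of calcein-AM-labelled leukocytes was quantified by fluorescence. Inhibition was calculated on cytokine-stimulated adhesion after subtracting basal adhesion of unstimulated cells.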

As a reminder, the melting point is the temperature, or range, at which the solid turns liquid. In turn, `O=C(O)/C=C/c1ccc(-c2nc3c(=O)n(CC4CCCCCC4)c(=O)n(CC4CCCCCC4)c3[nH]2)cc1` (hydrate or solvate) [Example 7, (E)-4-(1,3-bis(cycloheptylmethyl)-1,2,3,6-tetrahydro-2,6-dioxo-9H-purin-8-yl)cinnamic Acid] had a melting point above 250 °C.

For `O=C(O)/C=C/c1cccc(-c2nc3c(=O)n(Cc4ccccc4)c(=O)n(Cc4ccccc4)c3[nH]2)c1` (hydrate or solvate) [Example 13, (E)-3-(1,3-bis(benzyl)-1,2,3,6-tetrahydro-2,6-dioxo-9H-purin-8-yl)cinnamic Acid], the melting point was above 350 °C. Compound `Cn1c(=O)c2nc(-c3ccc(/C=C/C(=O)O)cc3)[nH]c2n(C)c1=O` (hydrate or solvate) [Example 14, (E)-4-(1,3-bis(methyl)-1,2,3,6-tetrahydro-2,6-dioxo-9H-purin-8-yl)cinnamic Acid] returned a melting point above 350 °C.

`O=C(O)/C=C/c1ccc(-c2nc3c(=O)n(Cc4ccc(F)cc4)c(=O)n(Cc4ccc(F)cc4)c3[nH]2)cc1` (hydrate or solvate) [Example 25, (E)-4-(1,3-bis(4-fluorobenzyl)-1,2,3,6-tetrahydro-2,6-dioxo-9H-purin-8-yl)cinnamic Acid] yielded a melting point above 300 °C. The same measure, in the same setting: the value for `CCCn1c(=O)c2nc(-c3cccc(/C=C/C(=O)O)c3)[nH]c2n(CCC)c1=O` (hydrate or solvate) [Example 26, (E)-3-[1,3-bis(propyl)-1,2,3,6-tetrahydro-2,6-dioxo-9H-purin-8-yl]cinnamic Acid] was above 350 °C. As usually defined, the IC50 is the point on the concentration scale where inhibition reaches its midpoint. On to `COCCOCCOCCOCCOCCOCCOCCOCCOCCOC(=O)/C=C/c1ccc(-c2nc3c(c(=O)n(C)c(=O)n3CC3CCCCC3)n2C)cc1` [Example 105, (E)-4-[(3-Cyclohexylmethyl)-2,3,6,7-tetrahydro-2,6dioxo-1,7-dimethyl-1H-purin-8-yl]cinnamic Acid Nonaethylene Glycol Methyl Ether Ester], for which, in data set [1], the IC50 is 200 ± 80 nM. Still for that read-out and setting: the value for `COCCOCCOCCOCCOCCOCCOCCNCc1ccc(-c2nc3c(=O)n(CC4CCCCC4)c(=O)n(CC4CCCCC4)c3[nH]2)cc1` [Example 106, 4-[1,3-Bis(cyclohexylmethyl)-1,2.3,6-tetrahydro-2,6-dioxo-9H-purin-8-yl]benzylamine N-Heptaethylene Glycol Methyl Ether] was 110 ± 56 nM.

For the compound `COCCOCCOCCOCCOCCOCCOCCNCc1ccc(-c2nc3c(=O)n(CC4CCCCC4)c(=O)n(CC4CCCCC4)c3[nH]2)cc1` [Example 107, 4-[1,3-Bis(cyclohexylmethyl)-1,2,3,6-tetrahydro-2,6-dioxo-9H-purin-8-yl]benzylamine N-Heptaethylene Glycol Methyl Ether Hydrochloride], the IC50 in data set [1] (Hydrochloride) is 39 ± 19 nM.

As for `COCCOCCOCCOCCOCCOCCOCCOCCOCCNCc1ccc(-c2nc3c(=O)n(CC4CCCCC4)c(=O)n(CC4CCCCC4)c3[nH]2)cc1` [Example 108, 4-[1,3-Bis(cyclohexylmethyl)-1,2,3,6-tetrahydro-2,6-dioxo-9H-purin-8-yl]benzylamine N-Nonaethylene Glycol Methyl Ether], the IC50 in data set [1] was 300 ± 82 nM. Regarding `COCCOCCOCCOCCOCCOCCOCCOCCOCCOCc1cccc(-c2nc3c([nH]2)c(=O)n(CC2CCCCC2)c(=O)n3CC2CCCCC2)c1` [Example 110, 1,3-Bis(cyclohexylmethyl)-8-[3-(2,5,8,11,14,17,20,23,26,29-decaoxatriacont-1-yl)phenyl]-3,7-dihydro-1H-purine-2,6-dione], in data set [1] (Homo sapiens), the 50% inhibitory concentration (IC50) was 29 ± 11 nM. Regarding `COCCOCCOCCOCCOCCOCCOCCOC(=O)/C=C/c1ccc(-c2nc3c(c(=O)n(CC4CCCCC4)c(=O)n3CC3CCCCC3)n2C)cc1` [Example 111, (E)-4-(1,3-Bis(cyclohexylmethyl)-2,3,6,7-tetrahydro-2,6-dioxo-7-methyl-1H-purin-8-yl)cinnamic Acid Heptaethylene Glycol Methyl Ether Ester], the IC50 in data set [1] is below 0.1 nM.
